pEC50, pIC50: −log10 of the molar value.

The target in assay [1] is Recombinant Human NF-kappaB-Inducing Kinase (NIK/MAP3K14) (Homo sapiens, UniProt Q99558). Put plainly: Biological Assay A2: inhibition of auto-phosphorylation of recombinant human NIK/MAP3K14 (AlphaScreen). In kind it is biochemical. The settings on record: auto-phosphorylation; averaged over all measurements on all batches; read-out: αscreen IC50. As to the method: Inhibition of Auto-Phosphorylation of Recombinant Human NF-kappaB-Inducing Kinase (NIK/MAP3K14) Activity (AlphaScreen®)
NIK/MAP3K14 auto-phosphorylation activity was measured using the AlphaScreen® (αscreen) format (Perkin Elmer). All compounds tested were dissolved in dimethyl sulfoxide (DMSO) and further dilutions were made in assay buffer. Final DMSO concentration was 1% (v/v) in assays. Assay buffer was 50 mM Tris pH 7.5 containing 1 mM EGTA (ethylene glycol tetraacetic acid), 1 mM DTT (dithiothreitol), 0.1 mM Na3VO4, 5 mM MgCl2, 0.01% Tween 20. Assays were carried out in 384 well Alphaplates (Perkin Elmer). Incubations consisted of compound, 25 microM Adenosine-5′-triphosphate (ATP), and 0.2 nM NIK/MAP3K14. Incubations were initiated by addition of GST-tagged NIK/MAP3K14 enzyme, carried out for 1 h at 25° C. and terminated by addition of stop buffer containing anti-phospho-IKK Ser176/180 antibody. Protein A Acceptor and Glutathione-Donor beads were added before reading using an EnVision® Multilabel Plate Reader (Perkin Elmer). Signal obtained in the wells containing blank samples was subtracted from all other wells and IC50's were determined by fitting a sigmoidal curve to % inhibition of control versus Log10 compound concentration.
Background: Alpha assays give light when donor and acceptor beads are brought close together.

The subject of a further assay is LP-1 cells. Put plainly: Biological Assay C: antiproliferative activity on LP-1 cells (CellTiter-Glo). In kind it is cell-based, human. To be noted: 72 hr treatment; averaged values. As to the method:
(§1) Determination of Antiproliferative Activity on LP-1, L-363 and JJN-3 Cells
(§2) All compounds tested were dissolved in DMSO and further dilutions were made in culture medium. Final DMSO concentration was 0.3% (v/v) in cell proliferation assays. Viability was assessed using CellTiter-Glo cell viability assay kit (Promega). The human LP-1, L-363 and JJN-3 cells (DSMZ) were cultured in RPMI 1640 medium supplemented with 2 mM L-glutamine, and 10% fetal calf serum (PAA). Cells were routinely kept as suspension cells at 37° C. in a humidified 5% CO2 atmosphere. Cells were passaged at a seeding density of 0.2×10^6/ml twice a week. Cells were seeded in black tissue culture treated 96-well plates (Perkin Elmer). Densities used for plating ranged from 2,000 to 6,000 cells per well in a total volume of 75 μl medium. After twenty four hours, drugs and/or solvents were added (25 μl) to a final volume of 100 μl. Following 72 hr of treatment plates were removed from the incubator and allowed to equilibrate to room temperature for approx 10 min. 100 μl CellTiter-Glo reagent was added to each well that was then covered (Perkin Elmer Topseal) and shaken on plate shaker for 10 min. Luminescence was measured on a HTS Topcount (Perkin Elmer). Within an experiment, the results for each treatment were the mean of 2 replicate wells. For initial screening purposes, compounds were tested using a 9 point dilution curve (serial 1:3 dilutions). For each experiment, controls (containing no drug) and a blank incubation (containing cells read at the time of compound addition) were run in parallel. The blank value was subtracted from all control and sample values. For each sample, the mean value for cell growth (in relative light units) was expressed as a percentage of the mean value for cell growth of the control.
(In general: ATP-based viability assays read luminescence as a measure of living cells.)

The next assay deals with L-363 cells. Put plainly: Biological Assay C: antiproliferative activity on L-363 cells (CellTiter-Glo). It is filed as cell-based, human. To be noted: 72 hr treatment, averaged values. As to the method: as §1, §2
The subject of a further assay is JJN-3 cells. In words: Biological Assay C: antiproliferative activity on JJN-3 cells (CellTiter-Glo). It is filed as cell-based, human. The settings on record: 72 hr treatment, averaged values. As to the method:
as §1, §2

Chain of Recombinant Human NF-kappaB-Inducing Kinase (NIK/MAP3K14) (Q99558 whole entry): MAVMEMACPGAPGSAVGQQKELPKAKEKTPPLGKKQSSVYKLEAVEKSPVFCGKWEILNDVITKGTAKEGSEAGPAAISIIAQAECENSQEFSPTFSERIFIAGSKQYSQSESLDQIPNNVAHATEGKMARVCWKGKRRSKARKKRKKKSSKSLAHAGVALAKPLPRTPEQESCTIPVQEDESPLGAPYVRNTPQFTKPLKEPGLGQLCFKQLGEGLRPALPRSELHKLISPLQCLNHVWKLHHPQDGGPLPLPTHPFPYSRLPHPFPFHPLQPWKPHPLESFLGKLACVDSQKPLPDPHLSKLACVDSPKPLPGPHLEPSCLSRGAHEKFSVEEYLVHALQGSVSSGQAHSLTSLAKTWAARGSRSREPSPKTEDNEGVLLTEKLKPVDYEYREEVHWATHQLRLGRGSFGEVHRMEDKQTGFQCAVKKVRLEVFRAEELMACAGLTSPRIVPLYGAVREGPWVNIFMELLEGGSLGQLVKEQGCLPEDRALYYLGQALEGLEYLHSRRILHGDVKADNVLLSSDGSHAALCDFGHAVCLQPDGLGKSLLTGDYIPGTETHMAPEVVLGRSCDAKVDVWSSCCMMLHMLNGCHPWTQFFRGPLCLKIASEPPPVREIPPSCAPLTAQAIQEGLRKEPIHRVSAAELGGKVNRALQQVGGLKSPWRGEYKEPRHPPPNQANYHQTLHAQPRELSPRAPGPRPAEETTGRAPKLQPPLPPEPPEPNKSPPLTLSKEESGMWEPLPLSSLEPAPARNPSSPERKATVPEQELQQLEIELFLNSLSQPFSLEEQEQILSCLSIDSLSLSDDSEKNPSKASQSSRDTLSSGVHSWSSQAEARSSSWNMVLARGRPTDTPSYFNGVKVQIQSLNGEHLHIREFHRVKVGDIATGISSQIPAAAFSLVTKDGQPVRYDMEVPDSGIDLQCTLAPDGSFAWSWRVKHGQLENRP

By pIC50 is commonly meant the negative decadic logarithm of the IC50, by convention in mol/L. As usually defined, the pEC50 is the EC50 on a negative log10 scale, so that one unit is a factor of ten. High values mean a low EC50, low ones a high EC50. For the compound `COCCCn1cc(-c2nc(N)ncc2F)c2cc(C#CC(C)(O)C3CC3)ncc21` (single isomer, unassigned) [Compound 119], the pIC50 in assay [1] was 6.64. The pEC50 in the assay with LP-1 cells is 5.68; in the assay with L-363 cells, 6.05; with JJN-3 cells it was 6.15.
The corresponding values for `CC(O)(C#Cc1cc2c(-c3nc(N)ncc3F)cn(C3COC3)c2cn1)C1CC1` (single isomer, unassigned) [Compound 121] are 6.17, 5.47, 5.89 and 5.85.
With `CC(O)(C#Cc1cc2c(-c3nc(N)ncc3F)cn(C3CN(C4CC4)C3)c2cn1)C1CC1` (single isomer, unassigned) [Compound 157], in assay [1], the pIC50 is 7.34. Moreover, the pEC50 in the assay with L-363 cells (Homo sapiens, L-363, 72 h) was 6.85; with JJN-3 cells (Homo sapiens, JJN-3, 72 h) it was 6.74.
The corresponding values for `COCc1cnc(N)nc1-c1cn(C(C)C)c2cnc(C#CC(C)(O)C3CC3)cc12` (centres unmarked) [Compound 143] are 7.13, 6.77 and 6.57.
The corresponding values for `COCc1cnc(N)nc1-c1cn(C(C)C)c2cnc(C#CC(C)(C)O)cc12` [Compound 144] are 7.43, 7.80 and 7.46.
For the compound `CC(O)(C#Cc1cc2c(-c3nc(N)ncc3F)cn(C3CN(CC(F)(F)F)C3)c2cn1)C1CC1` (centres unmarked) [Compound 145], in assay [1], the pIC50 was 6.85. Moreover, the pEC50 was 6.47 in the assay on L-363 cells (Homo sapiens, L-363, 72 h) and 6.59 in the assay with JJN-3 cells (Homo sapiens, JJN-3, 72 h).
The corresponding values for `CC(O)(C#Cc1cc2c(-c3nc(N)ncc3F)cn(C3CN(CC4CCCC4)C3)c2cn1)C1CC1` (centres unmarked) [Compound 146] are 6.70, 6.24 and 6.35.
Take `CCCCC(=O)NCCCn1cc(-c2ccnc(N)n2)c2cc(C#CC(C)(C)O)ncc21` [Compound 147]: the pIC50 in assay [1] is 6.89. Also, the pEC50 in the assay with L-363 cells (Homo sapiens, L-363, 72 h) is 6.28; in the assay with JJN-3 cells (Homo sapiens, JJN-3, 72 h), 5.85.
For `CC(=O)NCCCn1cc(-c2ccnc(N)n2)c2cc(C#CC(C)(C)O)ncc21` [Compound 148] the same measures were 7.19, 5.12 and 5.04.
The corresponding values for `COc1cnc(N)nc1-c1cn(C(C)C)c2cnc(C#CC(C)(O)C3CC3)cc12` (centres unmarked) [Compound 149] are 7.66, 7.66 and 7.42.
For `CC(C)n1cc(-c2nc(N)ncc2F)c2cc(C#CC3(O)CCN(C)C3=O)ncc21` (centres unmarked) [Compound 150] the same measures were 6.68, 5.82 and 5.80.
Take `CC(C)(O)C#Cc1cc2c(-c3nc(N)ncc3F)cn(C3CCN(CCF)C3)c2cn1` (centres unmarked) [Compound 151]: in assay [1], the pIC50 was 7.27. In addition, the pEC50 with L-363 cells (Homo sapiens, L-363, 72 h) was 7.35; in the assay on JJN-3 cells (Homo sapiens, JJN-3, 72 h), 7.34.
The corresponding values for `CC(O)(C#Cc1cc2c(-c3nc(N)ncc3F)cn(C3CCN(CCC(F)(F)F)C3)c2cn1)C1CC1` (centres unmarked) [Compound 152] are 7.33, 7.12 and 7.32.
Take `CC(O)(C#Cc1cc2c(-c3nc(N)ncc3F)cn(C3CCN(CCF)C3)c2cn1)C1CC1` (centres unmarked) [Compound 153]: the pIC50 in assay [1] is 7.13. The pEC50 with L-363 cells (Homo sapiens, L-363, 72 h) is 6.82; with JJN-3 cells (Homo sapiens, JJN-3, 72 h) it was 6.89.
For `CC(=O)N1CC(n2cc(-c3nc(N)ncc3F)c3cc(C#CC(C)(O)C4CC4)ncc32)C1` (centres unmarked) [Compound 154], the pIC50 in assay [1] is 6.72. The pEC50 in the assay on L-363 cells (Homo sapiens, L-363, 72 h) was 5.55; in the assay on JJN-3 cells (Homo sapiens, JJN-3, 72 h), 5.33.
The corresponding values for `COCCN1CC(n2cc(-c3nc(N)ncc3F)c3cc(C#CC(C)(O)C4CC4)ncc32)C1` (centres unmarked) [Compound 155] are 6.85, 6.42 and 6.40.
The corresponding values for `COCCCN1CC(n2cc(-c3nc(N)ncc3F)c3cc(C#CC(C)(O)C4CC4)ncc32)C1` (centres unmarked) [Compound 156] are 6.72, 6.44 and 6.49.

The values are drawn from patent US9643964B2, “3-(2-aminopyrimidin-4-yl)-5-(3-hydroxypropynyl)-1H-pyrrolo[2,3-C]pyridine derivatives as NIK inhibitors for the treatment of cancer” (Janssen Pharmaceutica NV, priority 2013, dated 2017).
